Measurements as given in US5169780A, “Enantiomeric enrichment and stereoselective synthesis of chiral amines” (Celgene Corporation, priority 1990, dated 1992).

Tests used:
Bacillus megaterium = test: induction of omega-amino acid transaminase production by addition of an amine to cultures; assay type: cell-based; conditions: 2 mM amine inducer, 30 to 40 hours; for Specific Activity (units/mg) Acetate: 40 mM acetate as carbon source; for Specific Activity (units/mg) Succinate: 40 mM succinate as carbon source
Protocol: (§1) Enzyme Activity: Enzyme activity is expressed herein as units/mg. A unit of enzyme activity is defined as that which produces 1 micromole of ketone per minute. For uniformity, this is measured as micromoles of 1-phenylbutan-3-one formed from R,S-1-phenyl-3-aminobutane. The following standardized assay was utilized to measure the activity of the omega-amino acid transaminases set forth in the examples which follow.
(§2) A known volume of the enzyme preparation to be tested is incubated at 37° C. and pH 7 in a solution having the following composition:
(§3) A sample is removed and 20% by volume of 12% aqueous trichloroacetic acid are added. Precipitated protein is removed by centrifugation and the concentration of 1-phenylbutan-3-one in the supernatant is determined by liquid chromatography on a 100×8 mm 4 micron Novopak phenyl column eluting with 40% isopropanol and 0.09% phosphoric acid in water. Under these conditions, 1-phenylbutan-3-one elutes at 5.3 minutes.
Enzyme Recovery: Unless otherwise indicated, cells from culture are centrifuged for 10 minutes at 10,000 G, resuspended in 10 mM of phosphate buffer at pH 7 and 0.5 mM of pyridoxal phosphate, and ruptured by two passes through a chilled French press operating at 15,000 psi. Cell debris is removed by centrifugation for one hour at 10,000 G and the enzyme-containing supernatant collected.
The following procedure exemplifies the growth of microorganisms using ammonium as the sole nitrogen source and then inducing omega-amino acid transaminase production by the addition of an amine.
Bacillus megaterium was grown in 1 L cultures in the standard salt medium supplemented with 40 mM of the indicated carbon source, 5 mM of ammonium chloride, 80 mM of phosphate buffer, and 2 mM of the amine inducer indicated below. After 30 to 40 hours, the enzyme was collected and assayed as described above.

[1] = system: omega-amino acid transaminase; test: relative rates of conversion of different chiral amines by soluble enzymatic preparations; assay type: biochemical; conditions: for conversion to the nonchiral ketone by the transaminase: racemate subjected to the enzyme
Protocol: as §1, §2, §3
The following procedure exemplifies the relative rates of conversion, determined directly or calculated from kinetic data, of different chiral amines by soluble enzymatic preparations utilizing the assay described above but substituting the indicated chiral amine.

[2] = system: omega-amino acid transaminase; test: rate of immobilized enzyme reaction with added benzylacetone; assay type: biochemical, Bacillus megaterium; conditions: 80 mM R,S-1-phenyl-3-aminobutane, 60 mM glyoxylate, pH 6.5
Protocol: Immobilization: A 47 mm diameter […] (FMC Corp.) support matrix (0.4 g) was loaded into a housing (Millipore Sweenex) fitted with inlet and outlet tubing, a peristaltic pump, and reservoir. The matrix was washed sequentially, at ambient temperatures and a rate of 3 ml/min., with (1) 200 ml of 50 mM of phosphate buffer (pH 7) containing 0.5 mM pyridoxal phosphate over a period of 20 min., (2) 11 ml of a 4.6 mg/ml solution of enzyme obtained in the manner of Example 1 for 120 min., (3) 150 ml of 0.3 M sodium chloride in 50 mM of phosphate buffer (pH 7) containing 0.5 mM pyridoxal phosphate for 30 minutes, and (4) 200 ml of 50 mM of phosphate buffer (pH 7) containing 0.5 mM pyridoxal phosphate over a period of 20 min.
A solution of omega-amino acid transaminase was immobilized onto a matrix according to the methods in Example 16. Four independent 200 milliliter substrate solutions containing 80 mM of R,S-1-phenyl-3-aminobutane, 60 mM glyoxylate, 0.1 mM pyridoxal phospate, and 50 mM potassium phosphate (pH 6.5) were prepared. Benzylacetone in concentrations of 0.50 mM, 0.85 mM, 1.45 mM, and 2.55 mM, respectively, were added to the four substrate solutions and these were pumped through the immobilized enzyme matrix. The rate of the enzyme catalyzed reaction was measured in micromoles/minute.

[3] = system: omega-amino acid transaminase; test: relative rates of conversion of 1-phenyl-3-aminobutane with different amino acceptors in place of pyruvate; assay type: biochemical; conditions: for Relative Rate of Conversion: substrate 1-phenyl-3-aminobutane
Protocol: as §1, §2, §3
The following procedure exemplifies the relative rates of conversion with 1-phenyl-3-aminobutane employing different amino acceptors in place of pyruvate in the assay described above.

[4] = system: omega-amino acid transaminase; test: standardized omega-amino acid transaminase activity assay, P. putida enzyme; assay type: biochemical, Pseudomonas putida
Protocol: as §1, §2, §3
Pseudomonas putida ATCC 39213 was cultured as described in Example 1 and an enzyme extract then was obtained as therein described. The specific activity of the omega-amino acid transaminase was 0.045 units/mg.
(§4) Enzyme extracts from P. putida, B. megaterium, and P. aeruginosa obtained as above were assayed as above at pH 9 in 50 mM of Tris/HCl using 30 mM of R,S-1-phenyl-3-aminobutane, with and without 100 mM of sodium pyruvate. The following relative rates of conversion were observed.
(§5) The transaminase nature of the enzymatic action is apparent from the effect of "suicide inactivators" known to be specific for transaminases {see, for example, Burnett et al., J. Bio. Chem., 225, 428-432 (1980)}, the inactivator (0.5 mM) being preincubated with the assay medium before addition of R,S-1-phenyl-3-aminobutane.
(§6) The stereoselectivity of the omega-amino acid transaminase can be seen from the corresponding assay utilizing 15 mM of R-1-phenyl-3-aminobutane (with pyruvate).

[5] = target: T1, omega-amino acid transaminase (Pseudomonas aeruginosa, UniProt Q9I700); test: standardized omega-amino acid transaminase activity assay, P. aeruginosa enzyme; assay type: biochemical
T1 construct: cell extracts containing the omega-amino acid transaminase then are obtained as therein described; host or cells: Pseudomonas aeruginosa ATCC 15692, cell extract
T1 sequence (Q9I700 1-448): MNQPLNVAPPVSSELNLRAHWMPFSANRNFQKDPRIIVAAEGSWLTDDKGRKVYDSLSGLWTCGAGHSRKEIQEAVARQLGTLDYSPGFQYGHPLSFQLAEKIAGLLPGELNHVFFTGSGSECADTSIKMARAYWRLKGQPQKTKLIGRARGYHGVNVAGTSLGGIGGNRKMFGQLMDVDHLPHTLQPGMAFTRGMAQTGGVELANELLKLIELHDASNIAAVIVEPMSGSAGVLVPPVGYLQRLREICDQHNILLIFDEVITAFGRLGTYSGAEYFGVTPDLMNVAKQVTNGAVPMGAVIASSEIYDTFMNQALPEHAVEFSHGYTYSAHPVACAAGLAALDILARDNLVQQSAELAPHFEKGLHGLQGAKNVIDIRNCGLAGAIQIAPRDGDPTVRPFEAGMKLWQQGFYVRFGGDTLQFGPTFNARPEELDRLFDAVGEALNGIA

[6] = system: omega-amino acid transaminase; test: standardized omega-amino acid transaminase activity assay (1-phenylbutan-3-one formed from R,S-1-phenyl-3-aminobutane), B. megaterium enzyme; assay type: biochemical, Bacillus megaterium
Protocol: as §1, §2, §3, §4, §5, §6

[7] = general statement of the description
[8] = stereoselectivity: 15 mM R-1-phenyl-3-aminobutane versus R,S-, with pyruvate
[9] = inactivator 0.5 mM preincubated before addition of R,S-1-phenyl-3-aminobutane, None = 100

C[C@@H](N)c1ccccc1 [R-1-phenyl-1-aminoethane]
Specific Activity (units/mg) Acetate (Bacillus megaterium): 0.36 units/mg
Specific Activity (units/mg) Succinate (Bacillus megaterium): 0.27 units/mg
conversion to the nonchiral ketone by the transaminase [1, 7]: unchanged

CCCCCCC(C)N (stereo not drawn) [2-aminooctane]
Relative Rate of Conversion R-enantiomer ([1]; amine (R,S) 5 mM): 0
Relative Rate of Conversion S-enantiomer ([1]; amine (R,S) 5 mM): 100

CC(=O)CCc1ccccc1 [benzylacetone]
ENZYME ACTIVITY ([2]; benzylacetone 0.50 mM): 11.2 µM/min
ENZYME ACTIVITY ([2]; benzylacetone 0.85 mM): 9.5 µM/min
ENZYME ACTIVITY ([2]; benzylacetone 1.45 mM): 8.1 µM/min
ENZYME ACTIVITY ([2]; benzylacetone 2.55 mM): 6.1 µM/min

O=C1CCCCC1 [cyclohexanone]
Relative Rate of Conversion ([3]; amino acceptor 25 mM): 23

CCC(C)N (racemic) [R,S-2-aminobutane]
Specific Activity (units/mg) Acetate (Bacillus megaterium): 0.14 units/mg
Specific Activity (units/mg) Succinate (Bacillus megaterium): 0.13 units/mg

NC(CO)c1ccccc1 (stereo not drawn) [phenylglycinol]
Relative Rate of Conversion R-enantiomer ([1]; amine (R,S) 10 mM): 100
Relative Rate of Conversion S-enantiomer ([1]; amine (R,S) 10 mM): 0

CC=O [acetaldehyde]
Relative Rate of Conversion ([3]; amino acceptor 20 mM): 50

O=CC(=O)O [glyoxalate]
Relative Rate of Conversion ([3]; amino acceptor 20 mM): 50

NCCc1ccc(O)cc1 [tyramine]
Specific Activity (units/mg) Acetate (Bacillus megaterium): 0.24 units/mg

CC(N)c1cccc2ccccc12 (stereo not drawn) [1-(α-naphthyl)1-aminoethane]
Relative Rate of Conversion R-enantiomer ([1]; amine (R,S) 10 mM): 0
Relative Rate of Conversion S-enantiomer ([1]; amine (R,S) 10 mM): 100

O=Cc1ccccc1 [benzaldehyde]
Relative Rate of Conversion ([3]; amino acceptor 25 mM): 17

CC(N)c1ccc(Br)cc1 (stereo not drawn) [1-(4-bromophenyl)-1-aminoethane]
Relative Rate of Conversion R-enantiomer ([1]; amine (R,S) 30 mM): 0
Relative Rate of Conversion S-enantiomer ([1]; amine (R,S) 30 mM): 100

CC(N)CCc1ccccc1 (racemic) [R,S-1-phenyl-3-aminobutane]
Relative Rate of Conversion P. putida [4, 8]: 100
Relative Rate of Conversion P. aeruginosa [5, 8]: 100
Specific Activity (units/mg) Acetate (Bacillus megaterium): 0.33 units/mg
Specific Activity (units/mg) Gluconate (Bacillus megaterium; 40 mM gluconate as carbon source): 0.26 units/mg
Specific Activity (units/mg) Glucose (Bacillus megaterium; 40 mM glucose as carbon source): 0.62 units/mg
Specific Activity (units/mg) Succinate (Bacillus megaterium): 0.28 units/mg
Relative Rate of Conversion B. megaterium [6, 8]: 100
Relative Rate of Conversion R-enantiomer ([1]; amine (R,S) 30 mM): 5
Relative Rate of Conversion S-enantiomer ([1]; amine (R,S) 30 mM): 100

CCC(C)=O [butan-2-one]
Relative Rate of Conversion ([3]; amino acceptor 20 mM): 20

CC(N)c1ccccc1 (racemic) [R,S-1-phenyl-1-aminoethane]
Specific Activity (units/mg) Acetate (Bacillus megaterium): 0.39 units/mg
Specific Activity (units/mg) Succinate (Bacillus megaterium): 0.27 units/mg
Relative Rate of Conversion R-enantiomer ([1]; amine (R,S) 10 mM): 0
Relative Rate of Conversion S-enantiomer ([1]; amine (R,S) 10 mM): 100

C[C@@H](N)c1ccc(Br)cc1 [R-1-amino-1-(4-bromophenyl)ethane]
conversion to the nonchiral ketone by the transaminase [1, 7]: unchanged

CC(N)c1ccc([N+](=O)[O-])cc1 (stereo not drawn) [1-(4-nitrophenyl)-1-aminoethane]
Relative Rate of Conversion R-enantiomer ([1]; amine (R,S) 5 mM): 0
Relative Rate of Conversion S-enantiomer ([1]; amine (R,S) 5 mM): 100

CCCC=O [butyraldehyde]
Relative Rate of Conversion ([3]; amino acceptor 20 mM): 90

CC(N)CCCc1cccnc1 (stereo not drawn) [5-(3-pyridyl)-2-aminopentane]
Relative Rate of Conversion R-enantiomer ([1]; amine (R,S) 5 mM): 0
Relative Rate of Conversion S-enantiomer ([1]; amine (R,S) 5 mM): 100

CCC=O [propionaldehyde]
Relative Rate of Conversion ([3]; amino acceptor 20 mM): 100

O=C1CCCC1 [cyclopentanone]
Relative Rate of Conversion ([3]; amino acceptor 25 mM): 12

NC1C=CC=C(C(=O)O)C1 (stereo not drawn) [Gabaculine, reference compound]
Relative Rate of Conversion P. putida [4, 9]: 0
Relative Rate of Conversion B. megaterium [6, 9]: 13

CCCC(C)=O [2-pentanone]
Relative Rate of Conversion ([3]; amino acceptor 25 mM): 33

CCCCCCC=O [heptaldehyde]
Relative Rate of Conversion ([3]; amino acceptor 25 mM): 80

NO [Hydroxylamine, reference compound]
Relative Rate of Conversion P. putida [4, 9]: 3
Relative Rate of Conversion P. aeruginosa [5, 9]: 0
Relative Rate of Conversion B. megaterium [6, 9]: 10

CC(=O)c1ccccc1 [acetophenone]
relative rates ([3]; as amino acceptor, concentration not given): ≤ 10

CCC(N)c1ccccc1 (stereo not drawn) [1-phenyl-1-aminopropane]
Relative Rate of Conversion R-enantiomer ([1]; amine (R,S) 20 mM): 11
Relative Rate of Conversion S-enantiomer ([1]; amine (R,S) 20 mM): 100

C[C@@H](N)CCc1ccccc1 [R-1-phenyl-3-aminobutane]
Relative Rate of Conversion P. putida [4, 8]: 3
Relative Rate of Conversion P. aeruginosa [5, 8]: 4
Specific Activity (units/mg) Acetate (Bacillus megaterium): 0.26 units/mg
Specific Activity (units/mg) Succinate (Bacillus megaterium): 0.21 units/mg
Relative Rate of Conversion B. megaterium [6, 8]: 15
conversion to 1-phenylbutan-3-one as a factor of that of the S-form [1, 7]: ≤ 0.05

CC[C@@H](C)N [R-2-aminobutane]
Specific Activity (units/mg) Acetate (Bacillus megaterium): 0.13 units/mg
Specific Activity (units/mg) Succinate (Bacillus megaterium): 0.06 units/mg

CC(N)Cc1ccccc1 (stereo not drawn) [3-phenyl-2-aminopropane]
Relative Rate of Conversion R-enantiomer ([1]; amine (R,S) 10 mM): 100
Relative Rate of Conversion S-enantiomer ([1]; amine (R,S) 10 mM): 0
Relative Rate of Conversion R-enantiomer ([1]; amine (R,S) 15 mM): 7
Relative Rate of Conversion S-enantiomer ([1]; amine (R,S) 15 mM): 100
